Measured values reported in patent US4874851A, “3',4'-dinitrogen substituted epipodophyllotoxin glucoside derivatives” (Bristol-Meyers Company, priority 1987, dated 1989).
In brackets after ≈: the same amount, converted by molar mass.

Assays:
P388 leukemia = experiment: Antitumor activity against transplantable murine P388 leukemia in mice (i.p. implant); assay type: in vivo, murine (female CDF1 mice); conditions: i.p. on days 5 and 8; 10^6 ascites cells i.p.; maximum effect over doses; >=125 significant
Procedure: (§1) Representative compounds of the present invention were evaluated for their antitumor activity in in vitro cytotoxicity assay against human and murine tumor cell lines, as well as against transplantable murine P388 leukemia.
Female CDF1 mice were implanted intraperitoneally with a tumor inoculum of 10^6 ascites cells of P388 murine leukemia and treated with various doses of a test compound; four mice were used for each dose level and ten were used as saline-treated control. The compounds were administered by intraperitoneal injection on days 5 and 8 (day 1 being the day of tumor implantation). Antitumor activity was expressed as % T/C which is the ratio of the median survival time (MST) of drug-treated group to the MST of saline-treated control group. A compound showing a % T/C value of 125 or greater is generally considered to have significant antitumor activity in the P388 test. The experiment lasted 31 days at the end of which time the number of survivors was noted. Table I presents the results of the above-described evaluation; only the maximum % T/C and the dose showing the maximum effect are reported.

B16-F10 murine melanoma = experiment: In vitro cytotoxicity assay, B16-F10 murine melanoma; assay type: cell-based; conditions: four-fold serial dilution, <500 μg/ml positive, two lines per compound; for IC50: Mus musculus, B16-F10, inhibit cell growth by 50%, read-out: IC50 B-16-F10; for IC50 B-16-F10: inhibit cell growth by 50%
Procedure: as §1
(§2) The in vitro cytotoxicity assay involved growing various mammalian tumor cells, including human tumor cells, on microtitre plates employing established tissue culture methods. The concentration of each compound required to inhibit cell growth by 50% (IC50) was then determined by a four-fold serial dilution technique. The validity of the method has been supported by a report published in the "Proceedings of the American Association for Cancer Research", 1984, 25: 1891 (Abst. No. 328). Tumor cells of the following types were employed for each compound tested: B16-F10 murine melanoma; KB human nasopharyngyl; Moser human colon; SW900 human lung; M109 murine lung; and three human colon tumor cell lines namely HCT-116, HCT-VM, and HCT-VP, the latter two being resistant to teniposide (VM) and etoposide (VP), respectively. IC50 values less than 500 μg/ml are a positive indicator of antitumor activity. Table II presents IC50 values of various compounds of the present invention against the aforementioned cell lines.

KB human nasopharyngyl = experiment: In vitro cytotoxicity assay, KB human nasopharyngyl; assay type: cell-based; conditions: inhibit cell growth by 50%, four-fold serial dilution, two lines per compound
Procedure: as §1, §2

M109 murine lung = experiment: In vitro cytotoxicity assay, M109 murine lung; assay type: cell-based; conditions: four-fold serial dilution, two lines per compound; for IC50: Mus musculus, M109, inhibit cell growth by 50%; for IC50 M109: inhibit cell growth by 50%
Procedure: as §1, §2

HCT-116 = experiment: In vitro cytotoxicity assay, HCT-116 human colon; assay type: cell-based; conditions: four-fold serial dilution, two lines per compound; for IC50: Homo sapiens, HCT-116, inhibit cell growth by 50%; for IC50 HCT-116: inhibit cell growth by 50%
Procedure: as §1, §2

Moser human colon = experiment: In vitro cytotoxicity assay, Moser human colon; assay type: cell-based; conditions: inhibit cell growth by 50%, four-fold serial dilution, two lines per compound; for IC50: Homo sapiens
Procedure: as §1, §2

SW900 human lung = experiment: In vitro cytotoxicity assay, SW900 human lung; assay type: cell-based; conditions: four-fold serial dilution, two lines per compound; for IC50: Homo sapiens, SW900, inhibit cell growth by 50%
Procedure: as §1, §2

HCT/VM46 = experiment: In vitro cytotoxicity assay, HCT/VM46 human colon, resistant to teniposide; assay type: cell-based; conditions: inhibit cell growth by 50%, two lines per compound
Procedure: as §1, §2

HCT/VP35 = experiment: In vitro cytotoxicity assay, HCT/VP35 human colon, resistant to etoposide; assay type: cell-based; conditions: inhibit cell growth by 50%, two lines per compound
Procedure: as §1, §2

[1] = system: small cell lung cancer, non-lymphocytic leukemia, and non-seminomatous testicular cancer; conditions: AMA Drug Evaluation, 5th Edition, 1983; cited from earlier work

SMILES	Max. % T/C (median survival time treated / saline control) (P388 leukemia) [%]	IC50 (B16-F10 murine melanoma) [µg/mL]	IC50 B-16-F10 (B16-F10 murine melanoma) [µg/mL]	IC50 (KB human nasopharyngyl; Homo sapiens) [µg/mL]	IC50 KB (KB human nasopharyngyl) [µg/mL]	IC50 (M109 murine lung) [µg/mL]	IC50 M109 (M109 murine lung) [µg/mL]	IC50 (HCT-116) [µg/mL]	IC50 HCT-116 (HCT-116) [µg/mL]	IC50 (Moser human colon) [µg/mL]	IC50 MOSER (Moser human colon) [µg/mL]	IC50 (SW900 human lung) [µg/mL]	IC50 (HCT/VM46; Homo sapiens) [µg/mL]	IC50 HCT/VM46 (HCT/VM46) [µg/mL]	IC50 (HCT/VP35; Homo sapiens, HCT/VP35, etoposide-resistant) [µg/mL]	IC50 HCT/VP35 (HCT/VP35; etoposide-resistant) [µg/mL]	IC50 SW900 (SW900 human lung; inhibit cell growth by 50%) [µg/mL]	activity in the treatment of a variety of cancers (in words) [1]
COC1=CC(C2c3cc4c(cc3C(OC3OC5COC(C)OC5C(O)C3O)C3COC(=O)C23)OCO4)=CC(=NOCc2ccccc2)C1=NOCc1ccccc1 (stereo not shown) [Example 1, 4'-Dehydroxy-3'-demethoxy-etoposide 3',4'-bis-O-benzyloxime]	126	14.5 (≈ 18.5 µM)	14.1 (≈ 18 µM)	37 (≈ 47.3 µM)	28 (≈ 35.8 µM)	83 (≈ 106 µM)	59 (≈ 75.4 µM)											
CON=C1C=C(C2c3cc4c(cc3C(OC3OC5COC(C)OC5C(O)C3O)C3COC(=O)C23)OCO4)C=C(OC)C1=NOC (stereo not shown) [Example 2, 4'-Dehydroxy-3'-demethoxy-etoposide 3',4'-bis-O-methyloxime]	175	29 (≈ 46 µM)	51 (≈ 80.9 µM)					84 (≈ 133 µM)	91 (≈ 144 µM)	54 (≈ 85.6 µM)	40 (≈ 63.4 µM)	> 250						
COc1cc(C2c3cc4c(cc3C(OC3OC5COC(C)OC5C(O)C3O)C3COC(=O)C23)OCO4)cc(N)c1N (stereo not shown) [Example 3, 4'-Dehydroxy-3'-demethoxy-3',4'-diamino etoposide]	216					104 (≈ 182 µM)	87 (≈ 152 µM)	108 (≈ 189 µM)	102 (≈ 178 µM)	87 (≈ 152 µM)	91 (≈ 159 µM)							
COc1cc(C2c3cc4c(cc3C(OC3OC5COC(C)OC5C(O)C3O)C3COC(=O)C23)OCO4)cc(NC(C)=O)c1NC(C)=O (stereo not shown) [Example 4, 4'-Dehydroxy-3'-demethoxy-3',4'-bis-acetylamino etoposide]	105	116 (≈ 177 µM)	98 (≈ 149 µM)					> 250		106 (≈ 161 µM)	123 (≈ 187 µM)	> 250						
COc1cc(C2c3cc4c(cc3C(OC3OC5COC(C)OC5C(O)C3O)C3COC(=O)C23)OCO4)cc(N=Cc2ccncc2)c1N=Cc1ccncc1 (stereo not shown) [Example 10, 4'-Dehydroxy-3'-demethoxy-3',4'-bis-(4-pyridylmethylene) amino Etoposide]	145	59 (≈ 78.6 µM)	100 (≈ 133 µM)					81 (≈ 108 µM)	103 (≈ 137 µM)			> 250						
COc1cc(C2c3cc4c(cc3C(OC3OC5COC(C)OC5C(O)C3O)C3COC(=O)C23)OCO4)cc2nn[nH]c12 (stereo not shown) [Example 17, 4'-Dehydroxy-3'-demethoxy-etoposide 3',4'-triazole]	125	45 (≈ 77.1 µM)	55 (≈ 94.3 µM)					53 (≈ 90.8 µM)	62 (≈ 106 µM)	91 (≈ 156 µM)	88 (≈ 151 µM)	78 (≈ 134 µM)	64 (≈ 110 µM)	88 (≈ 151 µM)	84 (≈ 144 µM)	82 (≈ 141 µM)	89 (≈ 153 µM)	
COc1cc(C2c3cc4c(cc3C(OC3OC5COC(C)OC5C(O)C3O)C3COC(=O)C23)OCO4)cc2nc[nH]c12 (stereo not shown) [Example 18, 4'-Dehydroxy-3'-demethoxy etoposide 3',4'-imidazole]	115	82 (≈ 141 µM)	55 (≈ 94.4 µM)					> 250		116 (≈ 199 µM)	115 (≈ 197 µM)	> 250						
COc1cc(C2c3cc4c(cc3C(OC3OC5COC(C)OC5C(O)C3O)C3COC(=O)C23)OCO4)cc2nc(C)c(C)nc12 (stereo not shown) [Example 20, 4'-Dehydroxy-3'-demethoxy-etoposide 3',4'-(2,3-dimethylpyrazine)]	110	118 (≈ 190 µM)	113 (≈ 181 µM)					103 (≈ 165 µM)	99 (≈ 159 µM)	113 (≈ 181 µM)	90 (≈ 145 µM)	> 250						
CCOP1(=S)Nc2cc(C3c4cc5c(cc4C(OC4OC6COC(C)OC6C(O)C4O)C4COC(=O)C34)OCO5)cc(OC)c2N1 (stereo not shown) [Example 21, 4'-Dehydroxy-3'-demethoxy etoposide 3',4'-ethylthiophosphamide]	145	23 (≈ 33.9 µM)	17.9 (≈ 26.4 µM)					20 (≈ 29.5 µM)	26 (≈ 38.3 µM)	21 (≈ 30.9 µM)	23 (≈ 33.9 µM)	> 250						
COc1cc([C@@H]2c3cc4c(cc3[C@@H](O[C@@H]3O[C@@H]5CO[C@@H](C)O[C@H]5[C@H](O)[C@H]3O)[C@H]3COC(=O)[C@H]23)OCO4)cc(OC)c1O [etoposide]																		active in the treatment of a variety of cancers
COc1cc([C@@H]2c3cc4c(cc3[C@@H](O[C@@H]3O[C@@H]5CO[C@@H](c6cccs6)O[C@H]5[C@H](O)[C@H]3O)[C@H]3COC(=O)[C@H]23)OCO4)cc(OC)c1O [teniposide]																		active in the treatment of a variety of cancers
